Reference: article PMC8231556, “Inhibiting Endothelial Cell Function in Normal and Tumor Angiogenesis Using BMP Type I Receptor Macrocyclic Kinase Inhibitors” (Cancers, 2021)

Tests used:
[1] = tested on: VEGF-induced DLL4 and NR4 A1 mRNA expression; assay: RT-qPCR of VEGF-induced DLL4 and NR4A1 mRNA in HUVECs; assay type: cell-based, human; details: 0.5 µM compound, VEGF 40 ng/mL
Description: (§1) EA.hy926 cells or HUVECs were seeded in 6-well plates and cultured until they reached 80% confluence. The medium was replaced with a serum-free medium for a 4 h starvation. For EA.hy926 cells, the compounds were added at a final concentration of 0.5 μM for 30 min, followed by BMP9 (1 ng/mL), TGF-β2 (1 ng/mL), or vehicle control addition and cultured for another 3 h before the cells were harvested. To investigate VEGF-induced cellular response, HUVECs were exposed to VEGF (40 ng/mL) for 1 h after 30 min pre-treatment with the compounds.
(§2) After samples were collected, total RNA was isolated and purified using the NucleoSpin RNA II kit (740955, BIOKE, Leiden, the Netherlands), following the manufacturer’s instructions. Then, the mRNA was used as a template to synthesize cDNA by performing reverse transcription with the RevertAid First Strand cDNA Synthesis Kit (K1621, ThermoFisher Scientific). Gene expression levels were determined by RT-qPCR analysis using the GoTaq qPCR Master Mix (A6001, Promega, Madison, WI, USA) and normalized to GAPDH expression. All the experiments were repeated three times, and results from three biologically independent experiments are shown.

HUVECs = assay: Chemotactic invasion assay; assay type: cell-based, human; details: 0.5 µM, towards full medium with 20% FBS
Description: The invasion potential of ECs was investigated using the chemotactic invasion assay, according to the IncuCyte instruction manual. Briefly, the top layer of an IncuCyte ClearView 96-well chemotaxis plate (4582, Essen Bioscience) was coated with 1% gelatin for 30 min. One thousand five hundred HUVEC cells/well were seeded on the gelatin-coated top plate and covered with 60 µL M199 medium with 1% FBS containing 0.5 µM of the indicated compounds or vehicle control (DMSO). Then 200 µL/well of M199 supplemented with 20% FBS, 100 IU/mL penicillin/streptomycin, 0.01 IU/mL Heparine, and BPE with 0.5 µM of the indicated compounds was added to the bottom plate. The plate was placed in the IncuCyte, and whole well images of both top and bottom membranes were captured every 4 h for one day using the IncuCyte Chemotaxis imaging protocol. Finally, the top and bottom cell areas were quantified with the instrument’s software using automated algorithms. The ECs invasive behavior was presented as total bottom cell area normalized to the initial top cell area. All the experiments were repeated at least three times, and representative results are shown.

[2] = tested on: BMP9-induced SMAD1/5 phosphorylation; assay: Western blot of BMP9-induced SMAD1/5 phosphorylation in EA.hy926 cells; assay type: cell-based; details: Homo sapiens, EA.hy 926, BMP9 1 ng/mL, 1 h, read-out: IC50 on BMP9-induced pSMAD1/5 response
Description: EA.hy926 cells or HUVECs were seeded in 6-well plates and starved in a serum-free medium for 4 h after reaching 80% confluence. The compounds were added 30 min prior to stimulation with the corresponding ligands. EA.hy926 cells were incubated with BMP9 (1 ng/mL), BMP6 (50 ng/mL), TGF-β2 (1 ng/mL), or vehicle control for 1 h. For HUVECs, after 4 h starvation, the cells were pre-treated with or without the indicated compounds for 30 min and subsequently stimulated with VEGF (40 ng/mL) for 10 min. The cells were harvested and lysed in radioimmunoprecipitation assay (RIPA) lysis buffer containing 1× complete protease inhibitor cocktail (11836153001, Roche, Basel, Switzerland). The protein concentration was determined using the DC protein assay kit (5000111, Bio-Rad). After adding loading buffer, the samples were boiled and proteins separated by sodium dodecyl sulfate polyacrylamide gel electrophoresis (SDS-PAGE). Proteins in the gel were transferred to polyvinylidene difluoride (PVDF) membranes (IPVH00010, Merck Millipore, Burlington, MA, USA) and immunoblotted with 1000 times diluted primary antibodies: phospho-SMAD1/5 (9516 S, Cell Signaling Technology, Leiden, The Netherlands), phospho-SMAD2 (pSMAD2, home-made), SMAD1 (6944 S, Cell Signaling Technology), SMAD2 (3103 S, Cell Signaling Technology), phospho-extracellular signal-regulated kinase/mitogen-activated protein kinase (pERK/MAPK, 4370, Cell Signaling Technology), mitogen-activated protein kinase/ERK1/2 (ERK1/2/MAPK, 9102 S, Cell Signaling Techonol), VEGFR (2479, Cell Signaling), pVEGFR (2478, Cell Signaling Technology), α/β-Tubulin (2148, Cell Signaling Technology), glyceraldehyde 3-phosphate dehydrogenase (GAPDH, MAB374, Merck Millipore). Clarity™ enhanced chemiluminescence (ECL) reagent (1705060, Bio-Rad) was used to visualize secondary antibodies conjugated to horseradish peroxidase (HRP). GAPDH or Tubulin was used as protein loading controls. […] The protein bands were quantified using ImageJ (National Institutes of Health, Bethesda, MD, USA).

[3] = tested on: BMP9-induced ID1, ID3, and SMAD6 mRNA expression; assay: RT-qPCR of BMP9-induced ID1, ID3 and SMAD6 mRNA in EA.hy926 cells; assay type: cell-based, human; details: 0.5 µM compound, BMP9 1 ng/mL
Description: as §1, §2

[4] = tested on: BMP6-induced SMAD1/5 phosphorylation; assay: Western blot of BMP6-induced SMAD1/5 phosphorylation in EA.hy926 cells; assay type: cell-based, human; details: BMP6 50 ng/mL
Description: EA.hy926 cells or HUVECs were seeded in 6-well plates and starved in a serum-free medium for 4 h after reaching 80% confluence. The compounds were added 30 min prior to stimulation with the corresponding ligands. EA.hy926 cells were incubated with BMP9 (1 ng/mL), BMP6 (50 ng/mL), TGF-β2 (1 ng/mL), or vehicle control for 1 h. For HUVECs, after 4 h starvation, the cells were pre-treated with or without the indicated compounds for 30 min and subsequently stimulated with VEGF (40 ng/mL) for 10 min. The cells were harvested and lysed in radioimmunoprecipitation assay (RIPA) lysis buffer containing 1× complete protease inhibitor cocktail (11836153001, Roche, Basel, Switzerland). The protein concentration was determined using the DC protein assay kit (5000111, Bio-Rad). After adding loading buffer, the samples were boiled and proteins separated by sodium dodecyl sulfate polyacrylamide gel electrophoresis (SDS-PAGE). Proteins in the gel were transferred to polyvinylidene difluoride (PVDF) membranes (IPVH00010, Merck Millipore, Burlington, MA, USA) and immunoblotted with 1000 times diluted primary antibodies: phospho-SMAD1/5 (9516 S, Cell Signaling Technology, Leiden, The Netherlands), phospho-SMAD2 (pSMAD2, home-made), SMAD1 (6944 S, Cell Signaling Technology), SMAD2 (3103 S, Cell Signaling Technology), phospho-extracellular signal-regulated kinase/mitogen-activated protein kinase (pERK/MAPK, 4370, Cell Signaling Technology), mitogen-activated protein kinase/ERK1/2 (ERK1/2/MAPK, 9102 S, Cell Signaling Techonol), VEGFR (2479, Cell Signaling), pVEGFR (2478, Cell Signaling Technology), α/β-Tubulin (2148, Cell Signaling Technology), glyceraldehyde 3-phosphate dehydrogenase (GAPDH, MAB374, Merck Millipore). Clarity™ enhanced chemiluminescence (ECL) reagent (1705060, Bio-Rad) was used to visualize secondary antibodies conjugated to horseradish peroxidase (HRP). GAPDH or Tubulin was used as protein loading controls. All the experiments were repeated at least three times, and representative experiments are shown. The protein bands were quantified using ImageJ (National Institutes of Health, Bethesda, MD, USA).

[5] = tested on: constitutively active ALK1 (caALK1); assay: caALK1-induced BRE-Luc reporter activity in C2C12 cells; assay type: cell-based; details: for inhibition of caALK1 compared to caALK2 (BRE-Luc): C2C12 cells
Excerpt: To further investigate and validate the selective inhibitory effects of OD16 and OD29 toward BMP9/ALK1 and BMP6/ALK2 signaling, we transfected C2C12 myoblast cells with constitutively active mutant ALK1 and ALK2 (caALK1 and caALK2). These constitutively active receptors signal in the absence of exogenous ligands and allow for a more direct assessment of inhibitory effects that are elicited by kinase receptor inhibitors. […]
Figure S4. OD29 and OD16 are two small molecule BMP type I receptors kinase inhibitors in C2C12 cells. Effects of vehicle control (DMSO), LDN−193189, OD16 or OD29 on BRE transcriptional luciferase reporter activity induced by the ectopic expression of caALK1 (A) or caALK2 (B) in C2C12 cells. Cells were incubated with the inhibitors in three different con-centrations (0.1 μM, 0.5 μM or 1 μM) for 16 hours. Representative results from three biologically independent experiments are shown as mean ± SD. NS, not significant; * p < 0.05, ** p < 0.005; *** p < 0.001.

| SMILES | effect on VEGF-induced DLL4 mRNA expression [1] | effect on VEGF-induced NR4 A1 mRNA expression [1] | effect on HUVEC chemotactic invasion (HUVECs) | IC50 [2] [nM] | effect on BMP9-induced ID1, ID3 and SMAD6 mRNA expression [3] | effect on BMP6-induced SMAD1/5 phosphorylation ([4]; 0.1 µM compound) | inhibition of caALK1 compared to caALK2 (BRE-Luc) [5] | effect on caALK1-induced BRE-Luc reporter activity ([5]; C2C12 cells, 0.1, 0.5 or 1 μM, 16 hours) | effect on BMP6-induced SMAD1/5 phosphorylation ([4]; 1 µM compound) |
| --- | --- | --- | --- | --- | --- | --- | --- | --- | --- |
| CNC(=O)c1ccccc1Sc1ccc2c(/C=C/c3ccccn3)n[nH]c2c1 [Axitinib, reference compound] | inhibited | inhibited | significantly compromised | – | – | – | – | – | – |
| c1ccc2c(-c3cnn4cc(-c5ccc(N6CCNCC6)cc5)cnc34)ccnc2c1 [LDN-193189, reference compound] | – | – | significantly compromised | 110 | inhibited | efficiently inhibited | No difference in inhibition between ALK1 and ALK2 | in a dose-dependent manner attenuated | – |
| CN1CCc2cccc(c2)Nc2nccc(n2)N2CCCc3cc(ccc32)C1 [OD16] | did inhibit | – | similarly blocked | 80 | inhibited | efficiently inhibited | higher sensitivity and more inhibitory potential against caALK1 compared to caALK2 | – | – |
| CN1CCC(=O)NCCNc2ccn3ncc(c3n2)-c2cccc(c2)C1 [OD29] | inhibited | inhibited | similarly blocked | 430 | inhibited | failed to antagonize | higher sensitivity and more inhibitory potential against caALK1 compared to caALK2 | – | very weak inhibitory effect |
